This passage reports IC50 results from US5273991A, “Imidazole-containing compositions and methods of use thereof analogs of distamycin” (Research Corporation Technologies, Inc., priority 1992, dated 1993).

By IC50 is commonly meant the point on the concentration scale where inhibition reaches its midpoint. Low values mean inhibition by little substance, high ones a need for much substance.

Holding throughout (test): NCI cytotoxicity screen (SRB)
What all share (format): cell-based, human

Experiment [1] deals with LOX IMVI. The conditions noted are these: 48 h; Melanoma LOX IMVI. How it is done: (§1) Compounds 6, 7, 9 and 10 were tested for cytotoxic properties by the National Cancer Institute, Bethesda, Md. The anticancer drug screen utilized a panel of 60 human tumor cell lines organized into subpanels representing leukemia, melanoma, and cancers of the lung, colon, kidney, ovary and central nervous system and is described by Monks et al. (1991) Journal of the National Cancer Institute 83, 757, which is incorporated herein by reference.
(§2) Cell lines were inoculated onto microtiter plates and preincubated for 24-28 hours. 100 μL aliquots of each compound were added to the appropriate microtiter plate wells in each of five 10-fold dilutions starting from a maximum concentration of 10^-4 M in water or DMSO. Cultures were then incubated for an additional 48 hours. Cells were then fixed in situ, followed by staining with sulforhodamine B (SRB), which binds to basic amino acids of cellular macromolecules. The solubilized stain was measured spectrophotometrically to determine relative cell growth or viability in treated and untreated cells. The monoimidazole analogs of Compounds 6, 7, 9 and 10 and the formamido analog corresponding to Compounds 7 and 10 are devoid of activity against the panel of cancer cell lines in Table III.

Experiment [2] relates to RPMI-8226. How it is done: as §1, §2
Experiment [3] relates to SNB-78. The method, then:
as §1, §2

Experiment [4] relates to VO-31. How it is done:
as §1, §2

Experiment [5] relates to TK-10. The method, then:
as §1, §2

The subject of experiment [6] is SK-MEL-5. The method, then:
as §1, §2

In experiment [7] the test system is OVCAR-3. The method, then:
as §1, §2

Experiment [8] deals with ACHN. The method, then: as §1, §2
For experiment [9], the system named is SK-MEL-28. How it is done: as §1, §2
Experiment [10] deals with A498. How it is done:
as §1, §2

Experiment [11] has as its system M19-MEL. How it is done: as §1, §2
Experiment [12] deals with SN12C. How it is done:
as §1, §2

Experiment [13] deals with SR. How it is done:
as §1, §2

For experiment [14], the system named is OVCAR-4. The method, then: as §1, §2
The test system of experiment [15] is RXR-631. The method, then: as §1, §2
For experiment [16], the system named is CCRF-CEM. How it is done:
as §1, §2

In experiment [17] the test system is RXF-393. The method, then:
as §1, §2

Experiment [18] has as its system SK-MEL-2. How it is done:
as §1, §2

The test system of experiment [19] is M14. How it is done:
as §1, §2

For experiment [20], the system named is LOX 1MV1. The method, then:
as §1, §2

Experiment [21] has as its system OVCAR-5. How it is done: as §1, §2
For experiment [22], the system named is CAKI-1. How it is done:
as §1, §2

Experiment [23] relates to HOP-92. The conditions noted are these: subsequent test date. How it is done:
as §1, §2

The test system of experiment [24] is SNB-19. The method, then: as §1, §2
The test system of experiment [25] is SK-OV-3. The method, then: as §1, §2
For experiment [26], the system named is 786-0. How it is done: as §1, §2
For experiment [27], the system named is LXFL529. How it is done: as §1, §2
The subject of experiment [28] is SNB-75. How it is done: as §1, §2
Setting [29] is: SK-MEL-28, subsequent test date.

Take `CN(C)CCNC(=O)c1nc(NC(=O)c2nc(NC(=O)c3nc(NC(=O)CCCc4ccc(N(CCCl)CCCl)cc4)cn3C)cn2C)cn1C` [Compound 10, N-(N',N'-dimethylaminoethyl)-1-methyl-4-{1-methyl-4-[4-(4,4-bis(2-chloroethyl)aminophenyl-1-butanamido)-1-methylimidazole-2-carboxamido]imidazole-2-carboxamido}imidazole-2-carboxamide]: the half-inhibitory concentration (IC50) in [1] amounted to 6.44 µM; in experiment [2] (48 h, Leukemia RPMI-8226), 9.5 µM; in experiment [3] (48 h, CNS Cancer SNB-78), 9.75 µM.
With `CN(C)CCNC(=O)c1nc(NC(=O)c2nc(NC(=O)c3ccc(N(CCCl)CCCl)cc3)cn2C)cn1C` [Compound 6, N-(N',N'-dimethylaminoethyl)-1-methyl-4-{4-[4,4-bis(2-chloroethyl)aminobenzamido]-1-methylimidazole-2-carboxamido}imidazole-2-carboxamide], the concentration for half-maximal inhibition (IC50) is 59.2 µM in [4] (48 h, Renal Cancer VO-31); 57.9 µM in experiment [4] (VO-31, subsequent test date); 59.9 µM in experiment [5] (48 h, Renal Cancer TK-10); 56.2 µM in [5] (TK-10, subsequent test date); 52 µM in experiment [6] (SK-MEL-5, subsequent test date); 56 µM in experiment [7] (48 h, Ovarian Cancer OVCAR-3). In addition, the half-maximal inhibitory concentration (IC50) in [7] (OVCAR-3, subsequent test date) was determined as 56.7 µM; in experiment [8] (48 h, Renal Cancer ACHN) it was 54.2 µM; in experiment [8] (ACHN, subsequent test date), 46.9 µM; in [9] (48 h, Melanoma SK-MEL-28), 5.69 µM; in experiment [9] (setting [29]) it was 5.78 µM; in experiment [10] (48 h, Renal Cancer A498), 40.6 µM. In addition, the IC50 stood at 66 µM in experiment [10] (A498, subsequent test date); 5.64 µM in experiment [11] (48 h, Melanoma M19-MEL); 5.65 µM in experiment [11] (M19-MEL, subsequent test date); 15.6 µM in [12] (48 h, Renal Cancer SN12C); 39.9 µM in [12] (SN12C, subsequent test date); 10.4 µM in experiment [13] (48 h, Leukemia SR). For the same compound, the IC50 in experiment [13] (SR, subsequent test date) is above 100 µM; in experiment [14] (48 h, Ovarian Cancer OVCAR-4), 34.2 µM; in [14] (OVCAR-4, subsequent test date) it was 14.3 µM; in experiment [15] (48 h, Renal Cancer RXR-631), 6.61 µM; in [15] (RXR-631, subsequent test date), 9.95 µM; in [16] (48 h, Leukemia CCRF-CEM) it was 10.9 µM. In addition, the IC50 turned out to be 40.3 µM in [16] (CCRF-CEM, subsequent test date); 50.3 µM in [17] (48 h, Renal Cancer RXF-393); 44.3 µM in experiment [17] (RXF-393, subsequent test date); 7.17 µM in experiment [18] (48 h, Melanoma SK-MEL-2); 5.85 µM in [18] (SK-MEL-2, subsequent test date); 5.92 µM in [19] (48 h, Melanoma M14). Further, the IC50 in [19] (M14, subsequent test date) came to 5.81 µM; in experiment [20] (LOX 1MV1, subsequent test date), 7.47 µM; in experiment [21] (48 h, Ovarian Cancer OVCAR-5), 45.7 µM; in experiment [21] (OVCAR-5, subsequent test date), 51.3 µM; in experiment [2] (48 h, Leukemia RPMI-8226), 30.5 µM; in experiment [2] (RPMI-8226, subsequent test date), 39.4 µM. The IC50 was determined as 67.2 µM in [3] (48 h, CNS Cancer SNB-78); 78.9 µM in experiment [3] (SNB-78, subsequent test date); 51.9 µM in [22] (48 h, Renal Cancer CAKI-1); 59.7 µM in experiment [22] (CAKI-1, subsequent test date); 42.7 µM in [23]; 43.7 µM in experiment [24] (48 h, CNS Cancer SNB-19). Also, the concentration for half-maximal inhibition (IC50) in [24] (SNB-19, subsequent test date) worked out at 32.4 µM; in experiment [25] (48 h, Ovarian Cancer SK-OV-3), 52.9 µM; in [25] (SK-OV-3, subsequent test date), 6.18 µM; in [26] (786-0, subsequent test date), 6.98 µM; in experiment [26] (48 h, Renal Cancer 786-0) it was 25.4 µM; in experiment [27] (48 h, Non-Small Cell Lung Cancer LXFL529), 13.2 µM. Moreover, the concentration for half-maximal inhibition (IC50) in experiment [27] (LXFL529, subsequent test date) was 34.8 µM; in [28] (48 h, CNS Cancer SNB-75), 41 µM; in experiment [28] (SNB-75, subsequent test date), 41.7 µM.
Turning to `CN(C)CCNC(=O)c1nc(NC(=O)c2nc(NC(=O)c3nc(NC(=O)c4ccc(N(CCCl)CCCl)cc4)cn3C)cn2C)cn1C` [Compound 7, N-(N',N'-dimethylaminoethyl)-1-methyl-4-{1-methyl-4-[4-(4,4-bis-(2-chloroethyl)aminobenzamido)-1-methylimidazole-2-carboxamido]imidazole-2-carboxamido}imidazole-2-carboxamide], the IC50 in experiment [4] (48 h, Renal Cancer VO-31) was above 100 µM; in experiment [4] (VO-31, subsequent test date), 96.6 µM; in experiment [5] (48 h, Renal Cancer TK-10), 4.2 µM; in experiment [5] (TK-10, subsequent test date), 3.51 µM; in [6] (48 h, Melanoma SK-MEL-5), 0.63 µM; in experiment [7] (48 h, Ovarian Cancer OVCAR-3) it was 0.72 µM. In addition, the IC50 in experiment [7] (OVCAR-3, subsequent test date) came out at 0.62 µM; in experiment [8] (48 h, Renal Cancer ACHN), 7.05 µM; in experiment [8] (ACHN, subsequent test date) it was 4.92 µM; in experiment [9] (48 h, Melanoma SK-MEL-28), 0.91 µM; in experiment [9] (setting [29]) it was 0.64 µM; in experiment [10] (48 h, Renal Cancer A498) it was 7.76 µM. Also, the half-maximal inhibitory concentration (IC50) is 0.78 µM in [11] (M19-MEL, subsequent test date); 0.61 µM in experiment [12] (SN12C, subsequent test date); 0.91 µM in experiment [13] (48 h, Leukemia SR); 0.61 µM in experiment [14] (48 h, Ovarian Cancer OVCAR-4); 0.5 µM in experiment [14] (OVCAR-4, subsequent test date); 5.97 µM in experiment [15] (48 h, Renal Cancer RXR-631). Further, the half-maximal inhibitory concentration (IC50) in experiment [16] (48 h, Leukemia CCRF-CEM) was found to be 1.52 µM; in experiment [17] (48 h, Renal Cancer RXF-393) it was 0.66 µM; in experiment [18] (48 h, Melanoma SK-MEL-2), 0.65 µM; in experiment [19] (M14, subsequent test date) it was 0.59 µM; in experiment [20] (48 h, Melanoma LOX 1MV1), 0.89 µM; in experiment [20] (LOX 1MV1, subsequent test date), 4.51 µM. Moreover, the IC50 in experiment [21] (48 h, Ovarian Cancer OVCAR-5) was 6.13 µM; in experiment [21] (OVCAR-5, subsequent test date) it was 5.24 µM; in experiment [22] (48 h, Renal Cancer CAKI-1), above 100 µM; in [23], 3.33 µM; in experiment [24] (48 h, CNS Cancer SNB-19), above 100 µM; in experiment [25] (48 h, Ovarian Cancer SK-OV-3) it was 0.83 µM. Also, the IC50 came to 0.48 µM in experiment [25] (SK-OV-3, subsequent test date); 0.51 µM in experiment [26] (786-0, subsequent test date); 0.54 µM in experiment [27] (LXFL529, subsequent test date); 0.61 µM in experiment [28] (48 h, CNS Cancer SNB-75).
Compound `CN(C)CCNC(=O)c1nc(NC(=O)c2nc(NC(=O)CCCc3ccc(N(CCCl)CCCl)cc3)cn2C)cn1C` [Compound 9, N-(N',N'-dimethylaminoethyl)-1-methyl-4-{4-[4,4-bis(2-chloroethyl)aminophenyl-1-butanamido]-1-methylimidazole-2-carboxamido}imidazole-2-carboxamide] had a half-inhibitory concentration (IC50) in [1] of 49.5 µM.
